In paper PMC3597730, “Novel Phenolic Inhibitors of Small/Intermediate-Conductance Ca^2+-Activated K^+ Channels, KCa3.1 and KCa2.3” (PLoS ONE, 2013):
Values joined by “and” are separate entries in the source; they are usually repeats but may differ in a detail not shown here. Identical values can stand only once. “Also recorded” adds a separate entry of the source. Like-named read-outs stand apart in the source and are kept apart here.

Experiments:
[1] = target: T1, hKCa2.3 (Homo sapiens, UniProt Q9UGI6); assay: Whole-cell patch-clamp of hKCa2.3 in COS7 cells; type: cell-based; conditions: for remaining activity at 1 µM: COS-7, hKCa2.3, compound 1 µM, mean ± SEM, n ≥ 3, read-out: % of control at 1 µM; for KCa2.3 blocking effect (in words): micromolar concentrations
T1 construct: expressed in transfected cells; host or cells: COS7
T1 sequence (Q9UGI6 whole entry): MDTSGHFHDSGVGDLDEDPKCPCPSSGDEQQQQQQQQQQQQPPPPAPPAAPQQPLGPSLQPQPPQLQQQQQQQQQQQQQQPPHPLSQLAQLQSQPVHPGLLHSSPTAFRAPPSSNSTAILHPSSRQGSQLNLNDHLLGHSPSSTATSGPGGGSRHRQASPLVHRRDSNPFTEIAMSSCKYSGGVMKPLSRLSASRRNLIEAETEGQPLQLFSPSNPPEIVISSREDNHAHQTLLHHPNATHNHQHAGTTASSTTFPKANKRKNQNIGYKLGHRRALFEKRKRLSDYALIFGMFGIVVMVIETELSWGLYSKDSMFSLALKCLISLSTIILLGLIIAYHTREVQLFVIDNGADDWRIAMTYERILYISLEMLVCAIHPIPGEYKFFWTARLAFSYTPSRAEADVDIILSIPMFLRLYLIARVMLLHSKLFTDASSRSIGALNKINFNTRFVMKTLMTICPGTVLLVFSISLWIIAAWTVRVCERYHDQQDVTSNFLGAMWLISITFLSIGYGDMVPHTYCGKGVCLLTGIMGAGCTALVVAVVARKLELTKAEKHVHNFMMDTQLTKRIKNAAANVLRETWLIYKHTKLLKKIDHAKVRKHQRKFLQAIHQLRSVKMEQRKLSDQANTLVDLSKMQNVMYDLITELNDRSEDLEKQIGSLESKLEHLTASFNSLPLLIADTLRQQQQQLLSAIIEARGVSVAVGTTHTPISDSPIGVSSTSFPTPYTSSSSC

[2] = target: T2, cloned human KCa3.1 channel (Homo sapiens, UniProt O15554); assay: Inside-out patch recordings from hKCa3.1-overexpressing HEK293 cells; type: biochemical; conditions: inside-out patches; compound 1 µM
T2 construct: expressed in transfected cells; gift of Khaled Houamed, University of Chicago

[3] = target: T3, KCa3.1 channels in 3T3 fibroblasts (Mus musculus, UniProt O89109); assay: Whole-cell patch-clamp of KCa3.1 currents in 3T3 fibroblasts; type: cell-based; conditions: for remaining activity at 1 µM: read-out: % of control at 1 µM; for KCa3.1 blocking effect (in words): concentrations up to 50 µM as in Table 1
T3 construct: KCa3.1 channels in 3T3 fibroblasts; endogenous in cells; host or cells: 3T3-L1 mouse embryonic fibroblasts

[4] = target: T4, hKv1.2 (Homo sapiens, UniProt P16389); assay: Whole-cell patch-clamp of cloned hKv1.2; type: cell-based; conditions: for remaining activity at 1 µM: compound 1 µM, read-out: % of control at 1 µM; for hKv1.2 blocking effect (in words): flufenamic acid and caffeic acid 10 and 50 µM, 13c 1 µM
T4 construct: expressed in transfected cells; host or cells: B82 murine fibroblasts (Methods)
T4 sequence (P16389 whole entry): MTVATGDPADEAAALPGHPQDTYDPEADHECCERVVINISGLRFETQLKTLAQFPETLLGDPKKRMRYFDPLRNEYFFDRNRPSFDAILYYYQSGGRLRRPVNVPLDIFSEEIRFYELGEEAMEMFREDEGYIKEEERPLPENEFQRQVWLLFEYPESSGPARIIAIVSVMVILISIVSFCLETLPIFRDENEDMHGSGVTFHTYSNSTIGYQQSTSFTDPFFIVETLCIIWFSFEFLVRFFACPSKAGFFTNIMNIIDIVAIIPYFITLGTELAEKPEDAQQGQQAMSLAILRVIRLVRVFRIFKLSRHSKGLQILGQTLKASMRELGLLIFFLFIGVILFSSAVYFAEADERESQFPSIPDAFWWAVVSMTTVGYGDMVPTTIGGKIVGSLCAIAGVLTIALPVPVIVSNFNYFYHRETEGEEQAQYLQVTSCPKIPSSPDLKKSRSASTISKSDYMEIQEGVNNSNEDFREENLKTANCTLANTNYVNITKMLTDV

[5] = test system: mixed KCa3.1 and KCa2.3 currents in PCAEC; assay: Whole-cell patch-clamp of KCa currents in porcine coronary artery endothelial cells; type: cell-based
[6] = test system: porcine coronary artery rings; assay: Isometric myography: 5-HT-induced contractions; conditions: for Δg, 1st stimulation / Δg, 2nd stimulation: 1 µM 5-HT
Procedure: (§1) Myography on porcine coronary artery rings was performed as described in detail previously, [30]. In brief, left anterior descending arteries or posterior descending arteries were cut into rings (3 mm long) and rings were mounted onto a isometric force transducer (Pioden UF1, Graham Bell House, Canterbury, UK). The organ bath contained a 5 ml Krebs buffer maintained at 37°C and gassed with 95% O2/5% CO2. The composition of the Krebs buffer was as follows (in mM): NaCl 120, NaHCO3 24.5, CaCl2 2.4, KCl 4.7, MgSO4 1.2, KH2PO4 1 and glucose 5.6, pH 7.4. Each ring was passively stretched to an initial tension of 1 gr (10 mN). Changes in force were monitored and recorded on a computer using a Mac Lab System/8e program (AD Instruments Inc, Milford, Ma, USA), and digitalized at a sample rate of 0.5 sec.
(§2) To measure specifically endothelium-derived hyperpolarization-mediated vasorelaxation (EDH), the NO-synthase blocker, Nω-nitro-L-arginine (L-NNA, 300 µM), and the cyclooxygenase blocker, indomethacin (10 µM), were added to the buffer. Preparations were washed three times and were allowed to equilibrate for 40 min. Within this period, the incubation medium was renewed every 20 min. […] Ten min later, bradykinin (1 µM) was added for another 10 min, followed by washout (over at least 10 min). This protocol was repeated (2nd stimulation). Thereafter, we performed a 3rd round of pre-contraction and vasorelaxation, but using the vasospasmic thromboxane analogue U46619 (0.2 µM) as vasocontracting agent. At the end of the experiments, rings were allowed to contract maximally in a KCl (60 mM) buffer for 10 min followed by addition of the compounds. Finally, sodium nitroprusside (10 µM) was added to achieve maximal endothelium-independent vasorelaxation.
(§3) DMSO as the vehicle had no vasoactive effect per se on the tissue. Other compounds were dissolved in Milli-Q water.
(§4) For data analysis, we determined absolute increases in force to 5-HT, U46619, or 60 mM KCl. Bradykinin-induced relaxations were determined as % change of pre-contraction to either vasocontracting compound and relative to the fully relaxed state (in the absence of the vasocontracting agent).

[7] = test system: porcine coronary artery rings; assay: Isometric myography: bradykinin-induced (EDH) relaxation; conditions: for % relaxation, 5-HT-precontraction / % relaxation, U46619-precontraction: 1 µM bradykinin
Procedure: as §1, §2, §3, §4

[8] = test system: porcine coronary artery rings; assay: Isometric myography: endothelium-independent relaxation to sodium nitroprusside; conditions: pre-contracted by 60 mM K+
Procedure: as §1
as §2, with “vasorelaxation. […]” for “vasorelaxation.”
as §4

[9] = test system: porcine coronary artery rings; assay: Isometric myography: U46619-induced contractions; conditions: 0.2 µM U46619
Procedure: as §1, §2, §3, §4

[10] = test system: porcine coronary artery rings; assay: Isometric myography: contractions to 60 mM K+
Procedure: as §1
as §2, with “vasorelaxation. […]” for “vasorelaxation.”
as §4

[11] = test system: T5, hERG channels; assay: Whole-cell patch-clamp of hERG tail currents in HEK293 cells; type: cell-based, human; conditions: 13b 1 µM; caffeic acid, flufenamic acid 10 µM (Table S1)
T5 construct: expressed in transfected cells; gift of Craig January, University of Wisconsin

[12] = test system: T6, hERG; assay: as above; type: cell-based, human; conditions: human, HEK293 cells expressing hERG, pH 7.4; hERG; compound 10 µM; read-out: % of control at 10 µM
T6 construct: expressed in transfected cells; gift of Craig January, University of Wisconsin

[13] = test system: 3T3 fibroblasts; assay: Cell proliferation assay (Janus B Green staining); type: cell-based, mouse; conditions: 3T3 cells
Procedure: Cell proliferation was spectrophotometrically assessed as described previously with some modifications. Briefly, 3T3 fibroblasts (1500 cells/well) were seeded in 96-well plates (TPP. Switzerland), cultured in DMEM containing 10% FCS (Lonza, Switzerland) with 13b or vehicle (DMSO), and formalin-fixed at days 0,1,2 and 3. To exclude the possibility that DMSO as vehicle affected the cell viability per se, final DMSO concentrations were the same for each concentration of 13b and the controls. Fixed cells were stained for 5 minutes with 50 ul/well of 0.3% Janus B Green dye (Acros Organics, Belgium) at room temperature with constant stirring followed by a de-staining step with water. Dye was eluted with 200 ul/well of 0.5 M HCl of hydrochloric acid and top-read measurements of absorbance were performed in a microplate reader (Sinergy HT, Biotek, USA) at 595 nm.

[14] = test system: T7, KCa1.1; assay: Whole-cell patch-clamp of KCa1.1 in U251 glioblastoma cells; type: cell-based, human
T7 construct: KCa1.1 in human U251 glioblastoma cells; endogenous in cells; host or cells: U251 glioblastoma cells

[15] = KCa3.1 whole-cell current, 3T3 fibroblasts, 1 µM free Ca2+ in pipette, compound 1 µM, mean ± SEM, n ≥3
[16] = 13b 0.5 µM, SKA-31 1 µM, alone or combined
[17] = SKA-31 10 µM, alone or with 13b 0.5 µM

c1cc2cc(c1)C[n+]1ccc(c3ccccc31)NCc1ccc(cc1)CNc1cc[n+](c3ccccc13)C2 [UCL1684, 6,10-diaza-3(1,3),8(1,4)-dibenzena-1,5(1,4)-diquinolinacyclodecaphane, reference compound]
% of control at 100 nM ([1]; hKCa2.3 current pre-activated by 1 µM SKA-31, n = 4): 2±1%

COc1cc(C(=O)OCc2cc(COC(=O)c3ccc(O)c(OC)c3)cc(COC(=O)c3ccc(O)c(OC)c3)c2)ccc1O [Compound 13a, [3,5-bis[(4-hydroxy-3-methoxy-benzoyl)oxymethyl]phenyl]methyl4-hydroxy-3-methoxy-benzoate]
hKCa3.1 blocking effect (in words) [2]: no or minor blocking effects; also recorded: did not block | remaining activity at 1 µM [1]: 98 ± 1% | KCa2.3 blocking effect (in words) [1]: no blocking effects | remaining activity at 1 µM [3, 15]: 78 ± 6% | block of hKv1.2 currents ([4]; 1 µM): 50% | remaining activity at 1 µM ([4]; hKv1.2): 46 ± 3%

Clc1ccccc1C(c1ccccc1)(c1ccccc1)n1cccn1 [TRAM-34, 1-[(2-chlorophenyl) (diphenyl)methyl]-1H-pyrazole, reference compound]
KCa current, % of control ([5]; whole-cell, compound 1 µM): 58±4% | remaining activity at 1 µM [3]: 1 ± 1% | KCa3.1 blocking effect (in words) ([3]; whole-cell, 3T3 fibroblasts): completely inhibited

Nc1nc2c(ccc3ccccc32)s1 [SKA-31, naphtho[1,2-d]thiazol-2-ylamine]
Δg, 1st stimulation [6, 16]: 0.4 ± 0.1 g | Δg, 2nd stimulation [6, 16]: 0.5 ± 0.1 g | Δg, 1st stimulation [6, 17]: 0.4 ± 0.1 g | Δg, 2nd stimulation [6, 17]: 0.23 ± 0.02 g | change of amplitude of 5-HT contraction vs. vehicle, 2nd stimulation [6, 17]: −44% | % relaxation, 5-HT-precontraction [7, 16]: 65±6% | % relaxation, U46619-precontraction [7, 16]: 5% and 5±1% | % relaxation, 5-HT-precontraction [7, 17]: 47±8% | % relaxation, U46619-precontraction [7, 17]: 10% and 10±2% | change of bradykinin relaxation vs. vehicle, 5-HT-precontracted rings [7, 16]: +110% | change of bradykinin relaxation vs. vehicle, 5-HT-precontracted rings [7, 17]: +52% | % relaxation to 10 µM SNP [8, 16]: 82±8% | % relaxation to 10 µM SNP [8, 17]: 80±5% | Δg [9, 16]: 1.9 ± 0.5 g | Δg [9, 17]: 1.7 ± 0.2 g | Δg, contraction to 60 mM K+ [10, 16]: 3.2 ± 0.5 g | Δg, contraction to 60 mM K+ [10, 17]: 2.5 ± 0.4 g

O=C(O)/C=C/c1ccc(O)c(O)c1 [Caffeic Acid, (E)-3-(3,4-dihydroxyphenyl)propenoic acid]
remaining activity at 10 µM ([1]; COS-7, read-out: % of control at 10 µM): 108 ± 7% | remaining activity at 50 µM ([1]; COS-7, read-out: % of control at 50 µM): 97 ± 1% | KCa2.3 blocking effect (in words) [1]: no blocking effects | mixed KCa3.1/KCa2.3 current, % of control ([5]; 50 µM, n = 1): 6% | remaining activity at 10 µM ([3]; read-out: KCa3.1 current blocked, % of control): 28 ± 10% | KCa3.1 blocking effect (in words) ([3]; whole-cell, 3T3 fibroblasts): Complete inhibition | EC50 ([3]; whole-cell, 3T3 fibroblasts, read-out: EC50 of KCa3.1 inhibition): 1300 nM and 1000 to 10000 nM | hERG effect (in words) [11]: not blocked | activity at 10 µM [12]: 97 ± 6% | change of proliferation vs. vehicle-treated controls ([13]; 25 µM): −27% | change of proliferation vs. vehicle-treated controls ([13]; 50 µM): −56% | KCa1.1 effect (in words) ([14]; U251 glioblastoma cells, 13b 1 µM, caffeic acid 10 µM): no blocking or activating effects | % of control at 10 µM ([14]; hKCa1.1, compound 10 µM): 103 ± 14% | hKv1.2 blocking effect (in words) [4]: did not block | remaining activity at 10 µM ([4]; hKv1.2, compound 10 µM, read-out: % of control at 10 µM): 100 ± 2% | remaining activity at 50 µM ([4]; hKv1.2, compound 50 µM, read-out: % of control at 50 µM): 97 ± 1%

O=C(OCc1cc(COC(=O)c2ccc(O)c(Cl)c2)cc(COC(=O)c2ccc(O)c(Cl)c2)c1)c1ccc(O)c(Cl)c1 [Compound 13c, [3,5-bis[(3-chloro-4-hydroxy-benzoyl)oxymethyl]phenyl]methyl3-chloro-4-hydroxy-benzoate]
hKCa3.1 blocking effect (in words) [2]: no or minor blocking effects; also recorded: did not block | remaining activity at 1 µM [1]: 92 ± 4% | KCa2.3 blocking effect (in words) [1]: no blocking effects | remaining activity at 1 µM [3, 15]: 61 ± 17% | KCa3.1 blocking effect (in words) ([3]; whole-cell, 3T3 fibroblasts): weak to moderate blocking efficiency | hKv1.2 blocking effect (in words) [4]: no effect | remaining activity at 1 µM ([4]; hKv1.2): 104 ± 3%
